Source: patent publication US20180105548A1, “A novel compound (KS-513) isolated from Pseudolysimachion rotundum var. subintegrum, the composition comprising the same preventing or treating allergic disease, inflammatory disease, asthma or chronic obstructive pulmonary disease and the use thereof” (priority 2015, published 2018)

What was measured:
Format in all cases: cell-based, mouse
TNF-alpha [1] = assay: mRNA expression of TNF-alpha in RAW264.7 cell line induced by LPS (real-time PCR); details: for TNF-alpha mRNA expression, Fold (value compared with a negative group) / TNF-alpha mRNA expression, Inhibition ratio (IR) compared with LPS treatment group: LPS 1 μg/ml, 12 hours
Method: (§1) In order to determine the inhibitory effect on the mRNA expression of pro-inflammatory medicated enzyme such as iNOS or COX-2, and pro-inflammatory medicated cytokines such as IL-1beta, IL-6, TNF-alpha in RAW264.7 cell line induced by LPS, following test using by real-time PCR (real-time polymerase chain reaction, quantitative real time polymerase chain reaction, qPCR) was performed according to the method disclosed in the literature (Livak, K. J., Schimittgen T. D., 2001, Analysis of relative gene expression data using real-time quantitiative PCR and the 2 (-Delta Delta C(T) method, Methods 25, p 402-408):
(§2) RAW264.7 cell was inoculated into 6-well-plates in the concentration of 1×10^6 cell/well to incubate for 12 hours. Various concentration of KS-513 compound (2.5, 5, 10 and 20 μM) was pre-treated therewith and 1 μg/mL of LPS (L6529, Sigma) was added thereto to incubate for 12 hours.
(§3) To extract total RNA, RNA was extracted using by Triazol B (invitrogen) and cDNA was synthesized using by Omniscript RT kit (205113, Qiagen, Gmbh, Hilden, Germany) after the quantification. The synthesized cDNA was mixed with its template and the primers shown in Table 3 (SEQ.I.D. 1-14), performed to denaturation at 94° C. for 5 mins using by PCR mix (PCR master Mix, Bioneer, Korea), and reacted as follows: 1 cycle for pre-denaturation; at 95° C. for 30 sec, 60° C. for 45 sec, 72° C. for 45 sec, 30 cycles for denaturation; 10 mins at 72° C., 1cycle for final extension. (FIG. 2)

IL-6 = assay: mRNA expression of IL-6 in RAW264.7 cell line induced by LPS (real-time PCR); details: for IL-6 mRNA expression, Fold (value compared with a negative group) / IL-6 mRNA expression, Inhibition ratio (IR) compared with LPS treatment group: LPS 1 μg/ml, 12 hours
Method: as §1, §2, §3

COX-2 = assay: mRNA expression of COX-2 in RAW264.7 cell line induced by LPS (real-time PCR); details: for COX-2 mRNA expression, Fold (value compared with a negative group) / COX-2 mRNA expression, Inhibition ratio (IR) compared with LPS treatment group: LPS 1 μg/ml, 12 hours
Method: as §1, §2, §3

IL-1beta = IL-1beta production in LPS-treated RAW264.7 cell (ELISA); details: for IL-1beta production (relative % comparing with LPS treatment group) / IL-1beta production, Inhibitory ratio (%): LPS 1 μg/mL, 24 hours
Method: (§4) RAW264.7 cell was inoculated into 96 well plates in the concentration of 1×10^5 cell/well to incubate for 18 hours. Various concentration of KS-513 compound (2.5, 5, 10 and 20 μM) was pre-treated therewith and 1 μg/mL of LPS (L6529, Sigma) was added thereto to incubate for 24 hours. The level of inflammatory cytokines such as IL-1beta, IL-6, TNF-alpha etc in the cell medium was determined by ELISA kit (IL-1beta:559603, IL-6:555240, TNF-alpha:5558534, BD) and the result was shown in FIG. 5 and Table 7-9.

NO = NO production in LPS-treated RAW264.7 cell (Griess Reagent); details: for NO production (relative % comparing with LPS treatment group) / NO production, Inhibitory ratio (%): LPS 1 μg/mL, 24 hours
Method: In order to determine the amount of NO reproduction in medium, following test was performed according to the method disclosed in the literature (Ding, A. H., et al., 1988, Release of reactive nitrogen intermediates and reactive oxygen intermediates from mouse peritoneal macrophages, Comparison of activating cytokines and evidence for independent production, Journal of Immunology, 141, pp 2407-2412).
RAW264.7 cell was inoculated into 96 well plates in the concentration of 1×10^5 cell/well to incubate for 18 hours. Various concentration of KS-513 compound (2.5, 5, 10 and 20 μM) was pre-treated therewith and 1 μg/mL of LPS (L6529, Sigma) was added thereto to incubate for 24 hours. The equivalent amount of Griess Reagent (G4410, Sigma) to the medium was added thereto and reacted at room temperature for 10 mins to determine the absorbance at 540 nm. The level of NO in the medium was determined using by standard curve expressed according to various concentration of sodium nitrite and the result was shown in Table 5 and FIG. 3.

TNF-alpha [2] = assay: TNF-alpha production in LPS-treated RAW264.7 cell (ELISA); details: for TNF-alpha production (relative % comparing with LPS treatment group) / TNF-alpha production, Inhibitory ratio (%): LPS 1 μg/mL, 24 hours
Method: as §4

PGE2 = PGE2 production in LPS-treated RAW264.7 cell (EIA); details: for PGE2 production (relative % comparing with LPS treatment group) / PGE2 production, Inhibitory ratio (%): LPS 1 μg/mL, 24 hours
Method: In order to determine the inhibitory effect on the COX-2 protein expression and the reproduced level of PGE2, following test was performed by the method disclosed in the literature (Chen, C, et al., 1999, Involvement of p 38 mitogen-activated protein kinase in lipopolysaccharide-induced iNOS and COX-2 expression in J774 macrophage, Immunology, 97, pp 124-129)
RAW264.7 cell was inoculated into 96 well plates in the concentration of 1×10^5 cell/well to incubate for 18 hours. Various concentration of KS-513 compound (2.5, 5, 10 and 20 μM) was pre-treated therewith and 1 μg/mL of LPS (L6529, Sigma) was added thereto to incubate for 24 hours. The PGE2 level in the cell was determined by Enzyme immunoassay (EIA; Amersham Pharmacia) system and the result was shown in FIG. 4A, 4B and Table 6.

[3] = various concentration, compared with control group treated with LPS (100%)
[4] = vs LPS treatment group (1 μg/ml), FIG. 5

## CO[C@@H]1C[C@H]2[C@H](OC(=O)c3ccc(O)cc3)[C@@H]3O[C@]3(CO)[C@H]2[C@H](O[C@@H]2O[C@H](CO)[C@@H](O)C(O)[C@H]2O)O1 (stereo partly drawn) [KS-513, (1aS, 1bS,2S,4S,5aR,6S,6aS)-1a-(hydroxymethyl)-4-methoxy-2-(((2S,3R,5S,6R)-3,4,5-trihydroxy-6-(hydroxymethyl)tetrahydro-2H-pyran-2-yl)oxy)octahydrooxireno[2′,3′:4,5]cyclopenta[1,2-c]pyran-6-yl 4-hydroxybenzoate]
TNF-alpha [1]; 2.5 μM
  TNF-alpha mRNA expression, Fold (value compared with a negative group): 9.60 ± 3.33 Fold
  TNF-alpha mRNA expression, Inhibition ratio (IR) compared with LPS treatment group: 14.34%
TNF-alpha [1]; 5 μM
  TNF-alpha mRNA expression, Fold (value compared with a negative group): 5.34 ± 3.27 Fold
  TNF-alpha mRNA expression, Inhibition ratio (IR) compared with LPS treatment group: 52.39%
TNF-alpha [1]; 10 μM
  TNF-alpha mRNA expression, Fold (value compared with a negative group): 2.72 ± 0.99 Fold
  TNF-alpha mRNA expression, Inhibition ratio (IR) compared with LPS treatment group: 75.69%
TNF-alpha [1]; 20 μM
  TNF-alpha mRNA expression, Fold (value compared with a negative group): 1.49 ± 0.77 Fold
  TNF-alpha mRNA expression, Inhibition ratio (IR) compared with LPS treatment group: 86.70%
TNF-alpha [1]; [3]
  expressed level of mRNA of TNF-alpha: significantly decreased in a dose dependent manner
IL-6; 2.5 μM
  IL-6 mRNA expression, Fold (value compared with a negative group): 24.73 ± 2.26 Fold
  IL-6 mRNA expression, Inhibition ratio (IR) compared with LPS treatment group: 20.62%
IL-6; 5 μM
  IL-6 mRNA expression, Fold (value compared with a negative group): 14.24 ± 1.44 Fold
  IL-6 mRNA expression, Inhibition ratio (IR) compared with LPS treatment group: 54.30%
IL-6; 10 μM
  IL-6 mRNA expression, Fold (value compared with a negative group): 8.57 ± 1.23 Fold
  IL-6 mRNA expression, Inhibition ratio (IR) compared with LPS treatment group: 72.50%
IL-6; 20 μM
  IL-6 mRNA expression, Fold (value compared with a negative group): 2.35 ± 0.81 Fold
  IL-6 mRNA expression, Inhibition ratio (IR) compared with LPS treatment group: 92.46%
IL-6; [3]
  expressed level of mRNA of IL-6: significantly decreased in a dose dependent manner
COX-2; 2.5 μM
  COX-2 mRNA expression, Fold (value compared with a negative group): 4.72 ± 0.21 Fold
  COX-2 mRNA expression, Inhibition ratio (IR) compared with LPS treatment group: 39.91%
COX-2; 5 μM
  COX-2 mRNA expression, Fold (value compared with a negative group): 2.64 ± 0.15 Fold
  COX-2 mRNA expression, Inhibition ratio (IR) compared with LPS treatment group: 66.40%
COX-2; 10 μM
  COX-2 mRNA expression, Fold (value compared with a negative group): 1.43 ± 0.50 Fold
  COX-2 mRNA expression, Inhibition ratio (IR) compared with LPS treatment group: 81.81%
COX-2; 20 μM
  COX-2 mRNA expression, Fold (value compared with a negative group): 0.97 ± 0.38 Fold
  COX-2 mRNA expression, Inhibition ratio (IR) compared with LPS treatment group: 87.66%
COX-2; [3]
  expressed level of mRNA of COX-2: significantly decreased in a dose dependent manner
IL-1beta; 2.5 μM
  IL-1beta production (relative % comparing with LPS treatment group): 95.17 ± 3.68%
  IL-1beta production, Inhibitory ratio (%): 4.83%
IL-1beta; 5 μM
  IL-1beta production (relative % comparing with LPS treatment group): 76.69 ± 3.40%
  IL-1beta production, Inhibitory ratio (%): 23.31%
IL-1beta; 10 μM
  IL-1beta production (relative % comparing with LPS treatment group): 61.56 ± 3.18%
  IL-1beta production, Inhibitory ratio (%): 38.44%
IL-1beta; 20 μM
  IL-1beta production (relative % comparing with LPS treatment group): 46.10 ± 2.51%
  IL-1beta production, Inhibitory ratio (%): 53.9%
IL-1beta; [4]
  level of produced IL-1beta: reduced in a dose dependent manner
NO; 2.5 μM
  NO production (relative % comparing with LPS treatment group): 91.89 ± 4.24%
  NO production, Inhibitory ratio (%): 8.21%
NO; 5 μM
  NO production (relative % comparing with LPS treatment group): 83.69 ± 3.79%
  NO production, Inhibitory ratio (%): 16.41%
NO; 10 μM
  NO production (relative % comparing with LPS treatment group): 80.06 ± 2.68%
  NO production, Inhibitory ratio (%): 20.04%
NO; 20 μM
  NO production (relative % comparing with LPS treatment group): 72.16 ± 3.57%
  NO production, Inhibitory ratio (%): 27.94%
NO; based on LPS treatment (100%)
  reproduced level of NO: reduced in a dose dependent manner
TNF-alpha [2]; 2.5 μM
  TNF-alpha production (relative % comparing with LPS treatment group): 97.38 ± 0.58%
  TNF-alpha production, Inhibitory ratio (%): 2.62%
TNF-alpha [2]; 5 μM
  TNF-alpha production (relative % comparing with LPS treatment group): 86.12 ± 1.14%
  TNF-alpha production, Inhibitory ratio (%): 13.88%
TNF-alpha [2]; 10 μM
  TNF-alpha production (relative % comparing with LPS treatment group): 68.03 ± 2.51%
  TNF-alpha production, Inhibitory ratio (%): 31.97%
TNF-alpha [2]; 20 μM
  TNF-alpha production (relative % comparing with LPS treatment group): 58.44 ± 3.50%
  TNF-alpha production, Inhibitory ratio (%): 41.56%
TNF-alpha [2]; [4]
  level of produced TNF-alpha: reduced in a dose dependent manner
PGE2; 2.5 μM
  PGE2 production (relative % comparing with LPS treatment group): 92.68 ± 7.29%
  PGE2 production, Inhibitory ratio (%): 7.31%
PGE2; 5 μM
  PGE2 production (relative % comparing with LPS treatment group): 72.87 ± 8.78%
  PGE2 production, Inhibitory ratio (%): 27.13%
PGE2; 10 μM
  PGE2 production (relative % comparing with LPS treatment group): 51.65 ± 8.44%
  PGE2 production, Inhibitory ratio (%): 48.35%
PGE2; 20 μM
  PGE2 production (relative % comparing with LPS treatment group): 28.23 ± 4.72%
  PGE2 production, Inhibitory ratio (%): 71.77%
PGE2; based on LPS treatment (100%)
  reproduced ratio of PGE2: reduced in a dose dependent manner
